These results are taken from patent publication US20190352268A1, “CANNABINOID RECEPTOR MEDIATING COMPOUNDS” (The USA, as represented by the Secretary, Department of …, priority 2015, published 2019).

Read-outs that look alike come from different tables or passages of the source.

Data set [1] deals with T1, CB1 (Mus musculus, UniProt P47746).
In the next data set the test system is DIO mice. As to the kind of experiment: Mice with diet-induced obesity (DIO), 14 days oral treatment. In kind it is in vivo, mouse. The protocol: Data represent mean±SEM from 5-6 mice per group.*(P<0.05), indicate significant difference from […] diet control. ^# indicates significant treatment effect (P<0.05) relative to vehicle-treated HFD group.
Data represent mean±SEM from 5-6 mice per group. *(P<0.05), indicate significant difference from (STD) diet control. ^# indicates significant treatment effect (P<0.05) relative to vehicle-treated HFD group. […] Glucose tolerance and insulin sensitivity were determined on the last 2 days of treatment, using i.p. glucose tolerance and insulin sensitivity tests.

A further data set deals with ZDF rats. As to the kind of experiment: Zucker diabetic fatty (ZDF) rat model of type 2 diabetes. In kind it is in vivo. The note with it: 10 mg/kg/day oral gavage, 7 days. The text has this: The Zucker diabetic fatty (ZDF) rat is a commonly used animal model of type 2 diabetes with progressive β-cell loss resulting in extreme hyperglycemia. […] (Jourdan et al, Nature Med 2013, 19-(9):1132-1140).

The nature of data set [2]: In vivo metabolism in mouse, plasma LC-MS/MS. To be noted: 1 h after oral administration at 10 mg/kg in mice.
The test system of data set [3] is CCl4-induced liver fibrosis. As to the kind of experiment: CCl4-induced liver fibrosis model in mice. In kind it is in vivo, mouse. The note with it: for CCl4-induced increase in immunoreactive iNOS: liver. The procedure:
CCl4-induced liver fibrosis was generated by intraperitoneal injection of CCL4 (1 ml/kg, diluted 1:10 corn oil), twice weekly for 8 weeks. […] Data represent mean±SEM from 7-8 mice per group.*P<0.05 relative to control. ^#indicates significant treatment effect (P<0.05) relative to CCl4-treated vehicle group.
Fibrosis results from excessive extracellular matrix deposition by myofibroblasts accompanying chronic inflammation and wound healing, and is a key pathogenic process in many organs, including kidneys, lung, and liver.

The nature of data set [4]: Tissue levels (brain and plasma) after administration to mice. The note with it: 1 hour after administration of 10 mg/kg to mice.
In data set [5] the target is T1, CB1. As to the kind of experiment: CB1 radioligand displacement assay in mouse brain membranes. In kind it is binding. Also on record: radioligand displacement assay in mouse brain membranes; from tissue; host or cells: mouse brain membranes. The note with it: Table 2; read-out: Ki CB1.
The subject of a further data set is recombinant human AMPK. As to the kind of experiment: Recombinant AMPK activity assay (Cyclex kit). Type of data set: biochemical. The text has this:
Guanides and biguanides, such as metformin, are effective as antidiabetic agents linked to their AMPK activating properties (Hardie et al., Chem Biol. 2012, […]; 1222-1236). Guanidine-containing analogs in certain embodiments were screened for activation of recombinant human AMPK, using an assay kit (Cyclex, Nagona, Japan), as illustrated in FIG. 8.
Activators of AMP-activated protein kinase (AMPK), such as guanidines of biguanides such as metformin are useful for the treatment of diabetes owing to their AMPK activating property (Hardie, et al., Chem & Biol 2012, 19(10); 1222-1236). Guanidine analogues of certain embodiments were screened for AMPK activation by using a recombinant AMPK activity assay.

Another data set concerns liver fibrosis. The note with it: Teixeira-Clerc, Nature Med 2006; cited from earlier work.
Setting [6] is: DIO mice, 10 mg/kg/day, 14 days.
The mark [7] stands for this setting: 10 mg/kg/day orally for 4 weeks.

T1 sequence (P47746 whole entry): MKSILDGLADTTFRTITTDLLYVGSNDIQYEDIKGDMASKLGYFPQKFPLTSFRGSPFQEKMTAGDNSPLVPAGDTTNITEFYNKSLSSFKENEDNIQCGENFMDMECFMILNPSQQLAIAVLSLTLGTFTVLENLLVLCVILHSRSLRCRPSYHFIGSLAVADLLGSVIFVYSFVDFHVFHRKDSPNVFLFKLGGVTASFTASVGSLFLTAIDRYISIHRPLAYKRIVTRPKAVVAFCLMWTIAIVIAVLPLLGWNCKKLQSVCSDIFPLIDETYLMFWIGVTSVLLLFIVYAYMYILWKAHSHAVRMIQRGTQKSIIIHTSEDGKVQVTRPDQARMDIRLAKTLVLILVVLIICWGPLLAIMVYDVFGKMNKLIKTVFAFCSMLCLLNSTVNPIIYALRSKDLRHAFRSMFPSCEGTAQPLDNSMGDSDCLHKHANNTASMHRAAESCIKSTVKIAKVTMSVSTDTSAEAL

Turning to `C/C(N)=N\C(=N/S(=O)(=O)c1ccc(Cl)cc1)N1CC(c2ccccc2)C(c2ccc(Cl)cc2)=N1` (racemic) [Compound 2, rac-N-(1-aminoethylidene)-3-(4-chlorophenyl)-N-((4-chlorophenyl)sulfonyl)-4-phenyl-4,5-dihydro-1H-pyrazole-1-carboximidamide], the “Functional GTPγS binding CB1 Emax” value on CB1 [1] is given as -20 % basal. Moreover, in the data set with DIO mice (setting [6]), the HFD-induced glucose intolerance result is listed as “abrogated”, the body weight entry was “reduced”, the food intake entry is “reduced” and the “hepatic TG” value was “reduced”. For the same molecule, in the data set with DIO mice (setting [6]), the hyperinsulinemia result is “abrogated”, the hyperleptinemia result is reported as “reduced” and the insulin resistance result is “abrogated”. The “insulin resistance (insulin sensitivity test)” value in the data set with DIO mice (DIO mice, last 2 days of treatment) is “nearly completely normalized”. The “glucose intolerance (i.p. glucose tolerance test)” value in the data set on DIO mice (DIO mice, last 2 days of treatment, i.p. glucose load 1.5 g/kg) was “nearly completely normalized”. In the data set with DIO mice (mouse, in vivo), the “In vivo Comments” value was “-anti- diabetic -anti- obesity”. Further, in the data set with ZDF rats, the plasma c-peptide entry is recorded as “prevented” and the plasma insulin entry was “prevented”. Further, the blood glucose result with ZDF rats (10 mg/kg/day) is “prevented the progressive increase”. For the same molecule, the “in vivo metabolism, metabolite generation in plasma” value in data set [2] is “underwent in vivo metabolism to liberate the amidine moiety and a metabolite”. In data set [3] (setting [7]), the “liver fibrosis / collagen deposition by Sirius Red and Masson's trichrome staining” value is given as “more effective than rimonabant”; the “α-SMA, Procollagen-1 and Fibronectin-1 mRNA” value is reported as “more effective than rimonabant”; the “CCl4-induced increase in immunoreactive iNOS” value was “attenuated”.

As for `CC(=N)N/C(=N\S(=O)(=O)c1ccc(Cl)cc1)N1C[C@H](c2ccccc2)C(c2ccc(Cl)cc2)=N1` [Compound 2E1], the “plasma levels, oral versus i.p. administration” value in data set [4] is reported as “comparable after oral or i.p. administration”. Also, in data set [3] (setting [7]), the “liver fibrosis / collagen deposition by Sirius Red and Masson's trichrome staining” value is “more effective than rimonabant”; the “CCl4-induced increase in immunoreactive iNOS” value is “dramatically attenuated”. For the same molecule, the “anti-fibrotic efficacy in liver fibrosis (overall)” value in [3] (versus rimonabant) is reported as “higher anti-fibrotic efficacy than rimonabant”.

As for `CN(CC(C)(C)C)C(N)=NC(=NS(=O)(=O)c1ccc(Cl)cc1)N1CC(c2ccccc2)C(c2ccc(Cl)cc2)=N1` (centres unmarked) [Compound 67], the inhibition constant Ki at CB1 [5] was 2390 nM.

As to `COC(CN(C)C(N)=NC(=NS(=O)(=O)c1ccc(Cl)cc1)N1CC(c2ccccc2)C(c2ccc(Cl)cc2)=N1)OC` (centres unmarked) [Compound 68], the Ki at CB1 [5] came out at 443 nM.

With `Cc1cc(C)n(C(N)=NC(=NS(=O)(=O)c2ccc(Cl)cc2)N2CC(c3ccccc3)C(c3ccc(Cl)cc3)=N2)n1` (centres unmarked) [Compound 69], the Ki on CB1 [5] was 10 nM.

As to `NC(=NC(=NS(=O)(=O)c1ccc(C(F)(F)F)cc1)N1CC(c2ccccc2)C(c2ccc(Cl)cc2)=N1)c1ccc(F)cc1` (centres unmarked) [Compound 79], the inhibition constant Ki on CB1 [5] was 9 nM.

Consider `NC(=NC(=NS(=O)(=O)c1ccc(C(F)(F)F)cc1)N1CC(c2ccccc2)C(c2ccc(Cl)cc2)=N1)c1ccc(F)cc1F` (centres unmarked) [Compound 80], for which, at CB1 [5], the Ki worked out at 6.6 nM.

Turning to `CC(C)(C)C(N)=NC(=NS(=O)(=O)c1ccc(C(F)(F)F)cc1)N1CC(c2ccccc2)C(c2ccc(Cl)cc2)=N1` (centres unmarked) [Compound 81], on CB1 [5], the Ki amounted to 3.4 nM.

As for `NC(=NC(=NS(=O)(=O)c1ccc(C(F)(F)F)cc1)N1CC(c2ccccc2)C(c2ccc(Cl)cc2)=N1)c1ccc(Cl)cc1` (centres unmarked) [Compound 82], on CB1 [5], the Ki was 16 nM.

For the molecule `NC(=NC(=NS(=O)(=O)c1ccc(C(F)(F)F)cc1)N1CC(c2ccccc2)C(c2ccc(Cl)cc2)=N1)n1cccn1` (centres unmarked) [Compound 84], the Ki on CB1 [5] came out at 28 nM.

Turning to `Cc1cc(C)n(C(N)=NC(=NS(=O)(=O)c2ccc(C(F)(F)F)cc2)N2CC(c3ccccc3)C(c3ccc(Cl)cc3)=N2)n1` (centres unmarked) [Compound 85], the Ki on CB1 [5] was found to be 1.5 nM.

As to `NC(=NC(=NS(=O)(=O)c1ccc(I)cc1)N1CC(c2ccccc2)C(c2ccc(Cl)cc2)=N1)c1ccc(Cl)cc1` (centres unmarked) [Compound 86], the Ki at CB1 [5] turned out to be 11 nM.

As to `NC(=NC(=NS(=O)(=O)c1ccc(I)cc1)N1CC(c2ccccc2)C(c2ccc(Cl)cc2)=N1)c1ccc(F)cc1` (centres unmarked) [Compound 87], the Ki at CB1 [5] worked out at 12 nM.

Turning to `NC(=NC(=NS(=O)(=O)c1ccc(I)cc1)N1CC(c2ccccc2)C(c2ccc(Cl)cc2)=N1)c1ccc(F)cc1F` (centres unmarked) [Compound 88], the inhibition constant Ki at CB1 [5] amounted to 4.8 nM.

`CC(C)(C)C(N)=NC(=NS(=O)(=O)c1ccc(I)cc1)N1CC(c2ccccc2)C(c2ccc(Cl)cc2)=N1` (centres unmarked) [Compound 89]: the inhibition constant (Ki) on CB1 [5] was 4.1 nM.

Regarding `CC(=O)N/C(N)=N/C(=N/S(=O)(=O)c1ccc(OC(F)(F)F)cc1)N1CC(c2ccccc2)C(c2ccc(Cl)cc2)=N1` (centres unmarked) [Compound 90], on CB1 [5], the Ki came to 1.8 nM.

As for `CC(=O)N/C(N)=N/C(=N/S(=O)(=O)c1ccc(C(C)(C)C)cc1)N1CC(c2ccccc2)C(c2ccc(Cl)cc2)=N1` (centres unmarked) [Compound 91], on CB1 [5], the Ki amounted to 1.3 nM.

Turning to `CC(N)=NC(=NS(=O)(=O)c1ccc(OC(F)(F)F)cc1)N1CC(c2ccccc2)C(c2ccc(Cl)cc2)=N1` (centres unmarked) [Compound 97], the Ki on CB1 [5] came out at 138 nM.

For the molecule `CC(N)=NC(=NS(=O)(=O)c1ccc(C(C)(C)C)cc1)N1CC(c2ccccc2)C(c2ccc(Cl)cc2)=N1` (centres unmarked) [Compound 98], the Ki at CB1 [5] was found to be 48 nM.

As for `CC(N)=NC(=NS(=O)(=O)c1ccc(C#N)cc1)N1CC(c2ccccc2)C(c2ccc(Cl)cc2)=N1` (centres unmarked) [Compound 100], at CB1 [5], the Ki was determined as 16 nM.

`NC(=NC(=NS(=O)(=O)c1ccc(C(F)(F)F)cc1)N1CC(c2ccccc2)C(c2ccc(Cl)cc2)=N1)NC(=O)/C=C/c1ccccc1` (centres unmarked) [Compound 101]: the inhibitory constant (Ki) at CB1 [5] worked out at 5.5 nM.

Regarding `Cc1c(C(=O)NN2CCCCC2)nn(-c2ccc(Cl)cc2Cl)c1-c1ccc(Cl)cc1` [rimonabant], the “effect on AMPK activity” value in the data set with recombinant human AMPK and in the data set on recombinant human AMPK (1 μM) was “no effect” in each case. In the data set on liver fibrosis, the anti-fibrotic effect result is “anti-fibrotic effect”.
